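Dose response: 5 concentrations. Exposure: 48 h. Format: 96-well plates. Endpoint: linear interpolation; highest concentration if not reached. Here, GI50 denotes the concentration required for 50% inhibition of growth.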 Calls of active or inactive are those of the source. No stated cut-off is given here; in the data, active = GI50 up to about 1.1 µM and inactive = higher.
Experiments:
Assay in all cases: DTP human tumour cell line panel, 48 h
IGROV-1 = test system: IGROV-1
NCI-H460 = test system: NCI-H460
EKVX = test system: EKVX
HOP-92 = test system: HOP-92
CCRF-CEM = test system: CCRF-CEM
T47D = test system: T47D
LXFL 529 = test system: LXFL 529
PC-3 = test system: PC-3
NCI-H23 = test system: NCI-H23
OVCAR-5 = test system: OVCAR-5
SN12C = test system: SN12C
OVCAR-4 = test system: OVCAR-4
XF498 = test system: XF498
CAKI-1 = test system: CAKI-1
DLD-1 = test system: DLD-1
COLO 205 = test system: COLO 205
SW-620 = test system: SW-620
HT-29 = test system: HT-29
K562 = test system: K562
KM-20L2 = test system: KM-20L2
MDA-MB-435 = test system: MDA-MB-435
LOX IMVI = test system: LOX IMVI
SF-295 = test system: SF-295
SR = test system: SR
DMS-114 = test system: DMS-114
SK-MEL-5 = test system: SK-MEL-5
UACC-62 = test system: UACC-62
DU-145 = test system: DU-145
BT-549 = test system: BT-549
M19-MEL = test system: M19-MEL
NCI-H522 = test system: NCI-H522
RXF 393 = test system: RXF 393
SK-OV-3 = test system: SK-OV-3
786-0 = test system: 786-0
A549 = test system: A549
HOP-18 = test system: HOP-18
SNB-78 = test system: SNB-78
SK-MEL-28 = test system: SK-MEL-28
TK-10 = test system: TK-10
A498 = test system: A498
NCI-H226 = test system: NCI-H226
Malme-3M = test system: Malme-3M
OVCAR-8 = test system: OVCAR-8
SNB-19 = test system: SNB-19
SK-MEL-2 = test system: SK-MEL-2
OVCAR-3 = test system: OVCAR-3
RPMI-8226 = test system: RPMI-8226
DMS-273 = test system: DMS-273
SF-268 = test system: SF-268
MDA-N = test system: MDA-N
HCT-116 = test system: HCT-116
KM12 = test system: KM12
UACC-257 = test system: UACC-257
SF-539 = test system: SF-539
RXF 631 = test system: RXF 631
ACHN = test system: ACHN
HCT-15 = test system: HCT-15
U-251 = test system: U-251
M14 = test system: M14
UO-31 = test system: UO-31
MCF7 = test system: MCF7
MOLT-4 = test system: MOLT-4
Hs-578T = test system: Hs-578T
HOP-62 = test system: HOP-62
HCC 2998 = test system: HCC 2998
HL-60 = test system: HL-60

In the case of `CC1(C)C(=O)/C=C\C(=O)C(C)(C)C(=O)/C=C\C(=O)C(C)(C)C2=CC=C(O2)C(C)(C)C(=O)/C=C\C1=O`, the GI50 (IGROV-1) is reported as 9.18 µM (inactive), the GI50 (NCI-H460) is reported as 20.5 µM (inactive) and the GI50 (EKVX) is reported as 5.21 µM (inactive). The GI50 (HOP-92) was 1.8 µM (inactive), the GI50 (CCRF-CEM) was 0.368 µM (active) and the GI50 (T47D) was 0.0775 µM (active). For the same molecule, the GI50 (LXFL 529) was 2.4 µM (inactive), the GI50 (PC-3) was 15.8 µM (inactive) and the GI50 (NCI-H23) was 5.55 µM (inactive). For the same molecule, the GI50 (OVCAR-5) was 20.8 µM (inactive), the GI50 (SN12C) was 5.48 µM (inactive) and the GI50 (OVCAR-4) was 6.61 µM (inactive). The GI50 (XF498) was 1.88 µM (inactive), the GI50 (CAKI-1) was 3.84 µM (inactive) and the GI50 (DLD-1) was 1.72 µM (inactive). For the same molecule, the GI50 (COLO 205) was 2.29 µM (inactive), the GI50 (SW-620) was 1.66 µM (inactive) and the GI50 (HT-29) was 2.89 µM (inactive). The GI50 (K562) was 1.63 µM (inactive), the GI50 (KM-20L2) was 13.9 µM (inactive) and the GI50 (MDA-MB-435) was 15.7 µM (inactive). The GI50 (LOX IMVI) was 5.14 µM (inactive), the GI50 (SF-295) was 17.3 µM (inactive) and the GI50 (SR) was 1.22 µM (inactive). The GI50 (DMS-114) was 8.26 µM (inactive), the GI50 (SK-MEL-5) was 7.85 µM (inactive) and the GI50 (UACC-62) was 5.07 µM (inactive). For the same molecule, the GI50 (DU-145) was 17.9 µM (inactive), the GI50 (BT-549) was 11.9 µM (inactive) and the GI50 (M19-MEL) was 5.86 µM (inactive). The GI50 (NCI-H522) was 1.44 µM (inactive), the GI50 (RXF 393) was 2 µM (inactive) and the GI50 (SK-OV-3) was 15.9 µM (inactive). The GI50 (786-0) was 2.24 µM (inactive), the GI50 (A549) was 21.1 µM (inactive) and the GI50 (HOP-18) was 22.5 µM (inactive). The GI50 (SNB-78) was 3.71 µM (inactive), the GI50 (SK-MEL-28) was 4.99 µM (inactive) and the GI50 (TK-10) was 7.6 µM (inactive). For the same molecule, the GI50 (A498) was 16.8 µM (inactive), the GI50 (NCI-H226) was 13.6 µM (inactive) and the GI50 (Malme-3M) was 1.91 µM (inactive). The GI50 (OVCAR-8) was 4.44 µM (inactive), the GI50 (SNB-19) was 16.7 µM (inactive) and the GI50 (SK-MEL-2) was 12.1 µM (inactive). The GI50 (OVCAR-3) was 3.27 µM (inactive), the GI50 (RPMI-8226) was 0.789 µM (active) and the GI50 (DMS-273) was 2.94 µM (inactive). For the same molecule, the GI50 (SF-268) was 16.6 µM (inactive), the GI50 (MDA-N) was 5.01 µM (inactive) and the GI50 (HCT-116) was 2.08 µM (inactive). The GI50 (KM12) was 12.7 µM (inactive), the GI50 (UACC-257) was 5.71 µM (inactive) and the GI50 (SF-539) was 9.62 µM (inactive). The GI50 (RXF 631) was 7.82 µM (inactive), the GI50 (ACHN) was 3.63 µM (inactive) and the GI50 (HCT-15) was 3.7 µM. The GI50 (U-251) was 15.7 µM (inactive), the GI50 (M14) was 2.21 µM (inactive) and the GI50 (UO-31) was 14.5 µM (inactive). For the same molecule, the GI50 (MCF7) was 10.6 µM (inactive), the GI50 (MOLT-4) was 1.27 µM (inactive) and the GI50 (Hs-578T) was 16.9 µM (inactive). The GI50 (HOP-62) was 24.3 µM (inactive), the GI50 (HCC 2998) was 11.7 µM (inactive) and the GI50 (HL-60) was 0.684 µM (active).

— ChEMBL document CHEMBL1201862, “PubChem BioAssay data set” (2004)
